Target: T1, human GHSR1a (Homo sapiens, UniProt Q92847)
T1 construct: expressed in transfected cells
Assay: Aequorin luminescent functional assay (intracellular Ca2+, ghrelin-stimulated)
Conditions: stable cell line expressing human GHSR1a and apoaequorin; final ghrelin 3x EC50 (20 nM); read-out: Class (based on IC50 values)
Procedure: IC50 values of inventive compounds may be assessed as follows. An aequorin (Euroscreen) luminescent assay (Stabels et al., 1997) measuring the intracellular Ca^2+ concentration was used as the functional assay to evaluate the potency of the compounds. A stable cell line, expressing human GHSR1a and apoaequorin in mitochondria was used in the aequorin assay. 5×10^6 cells per mL were incubated at room temperature in HyClone Media (Perbio) supplemented with 2 μM coelenterazine (Molecular Probes). After 2 hrs cells were diluted to 1×10^6 cells per ml in HyClone Medium.
50 μL of the cell suspension was added to each well of a 96-well plate containing 50 μL of compound, diluted in HyClone Medium. The cell suspension/compound mixture was incubated for 30 seconds before 50 μL of a 9× EC50 concentrations of a human ghrelin solution, in HyClone Medium, was injected. The final Ghrelin concentration was 3× EC50 (20 nM). Aequorin luminescence elicited by intracellular Ca^2+ in the cells was recorded for a total of 60 seconds with a microplate luminometer (Microlumate, Berthold). IC50 of the compounds in this assay was calculated with Prism 4.

T1 sequence (Q92847 whole entry): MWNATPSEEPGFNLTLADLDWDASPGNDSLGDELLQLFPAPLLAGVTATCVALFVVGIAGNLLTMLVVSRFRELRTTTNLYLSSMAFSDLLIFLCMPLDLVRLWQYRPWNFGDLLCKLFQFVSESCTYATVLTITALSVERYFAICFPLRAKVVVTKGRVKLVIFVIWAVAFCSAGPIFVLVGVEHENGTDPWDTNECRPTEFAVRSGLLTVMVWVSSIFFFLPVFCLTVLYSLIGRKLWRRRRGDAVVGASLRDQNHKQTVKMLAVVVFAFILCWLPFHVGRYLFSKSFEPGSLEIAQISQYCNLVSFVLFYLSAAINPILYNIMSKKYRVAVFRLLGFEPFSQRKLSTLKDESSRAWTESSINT

Structure (SMILES)	IC50
CC(C)[C@H](C(=O)NC1CCN(Cc2ccccc2)CC1)N1CC(=O)Nc2ccc(Oc3ccc(F)cc3)cc2C1=O	10 to 50 nM
CC(C)C(COC(=O)C1CCN(Cc2ccccc2)CC1)N1CC(=O)Nc2ccc(Oc3ccc(F)cc3)cc2C1=O (stereo not drawn) [1-benzyl-piperidine-4-carboxylic acid 2-[7-(4-fluoro-phenoxy)-2,5-dioxo-1,2,3,5-tetrahydro-benzo[e][1,4]diazepin-4-yl]-3-methyl-butyl ester]	10 to 50 nM
C[C@H](CO)NCc1cccc([C@@H](C2CC2)N2CCc3ccc(Oc4ccc(F)cc4F)cc3C2=O)n1 [2-((R)-cyclopropyl(6-(((R)-1-hydroxypropan-2-ylamino)methyl)pyridin-2-yl)methyl)-7-(2,4-difluorophenoxy)-3,4-dihydroisoquinolin-1(2H)-one]	≤ 10 nM
CC(C)C(COC1CCN(CC2CC2)CC1)N1CCc2ccc(Oc3ccc(F)cc3F)cc2C1=O (stereo not drawn) [2-[1-(1-cyclopropylmethyl-piperidin-4-yloxymethyl)-2-methyl-propyl]-7-(2,4-difluoro-phenoxy)-3,4-dihydro-2H-isoquinolin-1-one]	≤ 10 nM
CC(C)C(C(=O)N1CCC(NC2CC2)CC1)N1CCc2ccc(Oc3ccc(F)cc3F)cc2C1=O (stereo not drawn) [2-{1-[4-(cyclopropyl-amino)-piperidine-1-carbonyl]-2-methyl-propyl}-7-(2,4-difluoro-phenoxy)-3,4-dihydro-2H-isoquinolin-1-one]	≤ 10 nM
Cc1ccccc1Oc1ccc2c(c1)C(=O)N(C(C(=O)N1CCC(NCCc3ccc(F)cc3)CC1)C(C)C)CCN2C (stereo not drawn) [4-(1-{4-[2-(4-fluoro-phenyl)-ethylamino]-piperidine-1-carbonyl}-2-methyl-propyl)-1-methyl-7-o-tolyloxy-1,2,3,4-tetrahydrobenzo[e][1,4]diazepin-5-one]	10 to 50 nM
CCc1ccccc1Oc1ccc2c(c1)C(=O)N(C(C(=O)N1CCC(NC3CC3)CC1)C(C)C)CC(=O)N2 (stereo not drawn) [4-[1-(4-cyclopropylamino-piperidine-1-carbonyl)-2-methyl-propyl]-7-(2-ethyl-phenoxy)-3,4-dihydro-1H-benzo[e][1,4]diazepine-2,5-dione]	10 to 50 nM
CC(C)C(C(=O)N1CCC(NCCc2ccc(F)cc2)CC1)N1CCc2ccc(Oc3ccc(F)cc3F)cc2C1=O (stereo not drawn) [7-(2,4-difluoro-phenoxy)-2-(1-{4-[2-(4-fluoro-phenyl)-ethylamino]-piperidine-1-carbonyl}-2-methyl-propyl)-3,4-dihydro-2H-isoquinolin-1-one]	≤ 10 nM
CC(C)C(C(=O)N1CCC(NCc2ccc(F)cc2)CC1)N1CCc2ccc(Oc3ccc(F)cc3F)cc2C1=O (stereo not drawn) [7-(2,4-difluoro-phenoxy)-2-{1-[4-(4-fluoro-benzylamino)-piperidine-1-carbonyl]-2-methyl-propyl}-3,4-dihydro-2H-isoquinolin-1-one]	≤ 10 nM
Cc1cccc(C)c1Oc1ccc2c(c1)C(=O)N(C(C(=O)N1CCC(NCCc3ccc(F)cc3)CC1)C(C)C)CC(=O)N2 (stereo not drawn) [7-(2,6-dimethyl-phenoxy)-4-(1-{4-[2-(4-fluoro-phenyl)-ethylamino]-piperidine-1-carbonyl}-2-methyl-propyl)-3,4-dihydro-1H-benzo[e][1,4]diazepine-2,5-dione]	≤ 10 nM
Cc1cccc(C)c1Oc1ccc2c(c1)C(=O)N(C(C(=O)N1CCC(NCc3ccc(F)cc3)CC1)C(C)C)CC(=O)N2 (stereo not drawn) [7-(2,6-dimethyl-phenoxy)-4-{1-[4-(4-fluoro-benzylamino)-piperidine-1-carbonyl]-2-methyl-propyl}-3,4-dihydro-1H-benzo[e][1,4]diazepine-2,5-dione]	≤ 10 nM
CC(C)C(C(=O)N1CCC(NCCc2ccc(F)cc2)CC1)N1CC(=O)Nc2ccc(Oc3ccccc3C(C)(C)C)cc2C1=O (stereo not drawn) [7-(2-tert-butyl-phenoxy)-4-(1-{4-[2-(4-fluoro-phenyl)-ethylamino]-piperidine-1-carbonyl}-2-methyl-propyl)-3,4-dihydro-1H-benzo[e][1,4]diazepine-2,5-dione]	50 to 500 nM
O=C1c2cc(Oc3ccc(F)cc3F)ccc2CCN1[C@@H](c1cccc(CNCC(F)F)n1)C1CC1 [(R)-2-(cyclopropyl(6-((2,2-difluoroethylamino)methyl)pyridin-2-yl)methyl)-7-(2,4-difluorophenoxy)-3,4-dihydroisoquinolin-1(2H)-one]	≤ 10 nM

Now from value to compound:

IC50	Structure (SMILES)
≤ 10 nM	Cc1cccc(C)c1Oc1ccc2c(c1)C(=O)N([C@@H](C(=O)N1CCC(NC(C)c3ccccc3)CC1)C(C)C)CC(=O)N2 (stereo partly drawn)
≤ 10 nM	Cc1ccccc1Oc1ccc2c(c1)C(=O)N([C@@H](C(=O)N1CCC(N[C@@H]3CCc4ccccc43)CC1)C(C)C)CCN2
10 to 50 nM	CC(C)C(C(=O)OC1CCN(Cc2ccccc2)CC1)N1CC(=O)Nc2ccc(Oc3ccccc3)cc2C1=O (stereo not drawn) [2-(2,5-dioxo-7-phenoxy-1,2,3,5-tetrahydrobenzo[e][1,4]diazepin-4-yl)-3-methyl-butyric acid 1-benzyl-piperidin-4-yl ester]
≤ 10 nM	O=C1c2cc(Oc3ccc(F)cc3F)ccc2CCN1C(c1cccc(CCNCC2CC2)c1)C1CC1 (stereo not drawn) [2-(cyclopropyl-{3-[2-(cyclopropylmethyl-amino)-ethyl]-phenyl}-methyl)-7-(2,4-difluoro-phenoxy)-3,4-dihydro-2H-isoquinolin-1-one]
≤ 10 nM	CC(C)C(CC1CCC(NC2CC2)CC1)N1CCCc2ccc(Oc3ccc(F)cc3F)cc2C1=O (stereo not drawn) [2-[1-(4-Cyclopropylamino-cyclohexylmethyl)-2-methyl-propyl]-8-(2,4-difluoro-phenoxy)-2,3,4,5-tetrahydro-benzo[c]azepin-1-one]
≤ 10 nM	Cc1cccc(C)c1Oc1ccc2c(c1)C(=O)N(C(C(=O)NC1CCN(C3CCc4ccccc43)CC1)C(C)C)CC(=O)N2 (stereo not drawn) [2-[7-(2,6-dimethyl-phenoxy)-2,5-dioxo-1,2,3,5-tetrahydro-benzo[e][1,4]diazepin-4-yl]-N-(1-indan-1-yl-piperidin-4-yl)-3-methyl-butyramide]
≤ 10 nM	CC(C)C(CCC1CCN(CC2CC2)CC1)N1CCc2ccc(Oc3ccc(F)cc3F)cc2C1=O (stereo not drawn) [2-{1-[2-(1-Cyclopropylmethyl-piperidin-4-yl)-ethyl]-2-methyl-propyl}-7-(2,4-difluoro-phenoxy)-3,4-dihydro-2H-isoquinolin-1-one]
≤ 10 nM	CC(C)C(C(=O)N1CCC(NCC2CC2)CC1)N1CCc2ccc(Oc3ccc(F)cc3F)cc2C1=O (stereo not drawn) [2-{1-[4-(cyclopropylmethyl-amino)-piperidine-1-carbonyl]-2-methyl-propyl}-7-(2,4-difluoro-phenoxy)-3,4-dihydro-2H-isoquinolin-1-one]
≤ 10 nM	CC(C)C(c1cccc(CN(C)C)c1)N1CC(=O)Nc2ccc(Oc3ccc(F)cc3F)cc2C1=O (stereo not drawn) [7-(2,4-difluoro-phenoxy)-4-[1-(3-dimethylaminomethyl-phenyl)-2-methyl-propyl]-3,4-dihydro-1H-benzo[e][1,4]diazepine-2,5-dione]
≤ 10 nM	CC(C)NCc1cccc(C(C(C)C)N2CC(=O)Nc3ccc(Oc4ccc(F)cc4F)cc3C2=O)c1 (stereo not drawn) [7-(2,4-difluoro-phenoxy)-4-{1-[3-(isopropylamino-methyl)-phenyl]-2-methyl-propyl}-3,4-dihydro-1H-benzo[e][1,4]diazepine-2,5-dione]
10 to 50 nM	CCc1ccccc1Oc1ccc2c(c1)C(=O)N(C(C(=O)N1CCC(NCc3ccc(F)cc3)CC1)C(C)C)CC(=O)N2 (stereo not drawn) [7-(2-ethyl-phenoxy)-4-{1-[4-(4-fluoro-benzylamino)-piperidine-1-carbonyl]-2-methyl-propyl}-3,4-dihydro-1H-benzo[e][1,4]diazepine-2,5-dione]
10 to 50 nM	CC(C)C(C(=O)N1CCC(NC2CC2)CC1)N1CC(=O)Nc2ccc(Oc3ccccc3C(C)(C)C)cc2C1=O (stereo not drawn) [7-(2-tert-butyl-phenoxy)-4-[1-(4-cyclopropylamino-piperidine-1-carbonyl)-2-methyl-propyl]-3,4-dihydro-1H-benzo[e][1,4]diazepine-2,5-dione]
≤ 10 nM	CC(C)C(C(=O)N1CCC(NCc2ccc(F)cc2)CC1)N1CC=Cc2ccc(Oc3ccc(F)cc3F)cc2C1=O (stereo not drawn) [8-(2,4-difluoro-phenoxy)-2-{1-[4-(4-fluoro-benzylamino)-piperidine-1-carbonyl]-2-methyl-propyl}-2,3-dihydro-benzo[c]azepin-1-one]
50 to 500 nM	CC(C)C(COC(=O)NC1CCN(Cc2ccccc2)CC1)N1CC(=O)Nc2ccc(Oc3ccc(F)cc3)cc2C1=O (stereo not drawn) [(1-benzyl-piperidin-4-yl)-carbamic acid 2-[7-(4-fluoro-phenoxy)-2,5-dioxo-1,2,3,5-tetrahydro-benzo[e][1,4]diazepin-4-yl]-3-methyl-butyl ester]
≤ 10 nM	CC(C)(CO)NCc1cccc([C@@H](C2CC2)N2CCc3ccc(Oc4ccc(F)cc4F)cc3C2=O)n1 [(R)-2-(cyclopropyl(6-((1-hydroxy-2-methylpropan-2-ylamino)methyl)pyridin-2-yl)methyl)-7-(2,4-difluorophenoxy)-3,4-dihydroisoquinolin-1(2H)-one]
≤ 10 nM	O=C1c2cc(Oc3ccc(F)cc3F)ccc2CCN1[C@@H](c1cccc(CNCCF)n1)C1CC1 [(R)-2-(cyclopropyl(6-((2-fluoroethylamino)methyl)pyridin-2-yl)methyl)-7-(2,4-difluorophenoxy)-3,4-dihydroisoquinolin-1(2H)-one]
≤ 10 nM	O=C1c2cc(Oc3ccc(F)cc3F)ccc2CCN1[C@@H](c1cccc(CNC2CC2)n1)C1CC1 [(R)-2-(cyclopropyl(6-((cyclopropylamino)methyl)pyridin-2-yl)methyl)-7-(2,4-difluorophenoxy)-3,4-dihydroisoquinolin-1(2H)-one]
